In PubChem BioAssay (NCI):
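In this assay, cells in 96-well plates receive the compound at five concentrations for 48 hours. Endpoints are linearly interpolated between the surrounding concentrations. The concentration for full growth arrest is given as TGI.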

Columns and labels:
Assay in all cases: NCI-60 cell line screen, 48 h
SK-MEL-28 melanoma = tested on: SK-MEL-28 melanoma
SK-OV-3 ovarian = tested on: SK-OV-3 ovarian
MDA-MB-435 = tested on: MDA-MB-435
BT-549 breast = tested on: BT-549 breast
DU-145 prostate = tested on: DU-145 prostate
KM12 colon = tested on: KM12 colon
CCRF-CEM leukemia = tested on: CCRF-CEM leukemia
LOX IMVI melanoma = tested on: LOX IMVI melanoma
U251 CNS = tested on: U251 CNS
HOP-62 NSCLC = tested on: HOP-62 NSCLC

Row | SMILES | TGI (SK-MEL-28 melanoma) | TGI (SK-OV-3 ovarian) | TGI (MDA-MB-435) | TGI (BT-549 breast) | TGI (DU-145 prostate) | TGI (KM12 colon) | TGI (CCRF-CEM leukemia) | TGI (LOX IMVI melanoma) | TGI (U251 CNS) | TGI (HOP-62 NSCLC)
1 | Cc1ccc(C(=O)Nc2ccc(S(=O)(=O)O)c3cc(S(=O)(=O)O)cc(S(=O)(=O)O)c23)cc1NC(=O)c1cccc(NC(=O)Nc2cccc(C(=O)Nc3cc(C(=O)Nc4ccc(S(=O)(=O)O)c5cc(S(=O)(=O)O)cc(S(=O)(=O)O)c45)ccc3C)c2)c1 (tested in a mixture with another compound) | > 50 µM | > 50 µM | > 50 µM | > 50 µM | > 50 µM | > 50 µM | > 50 µM | > 50 µM | > 50 µM | –
2 | CCOC(=O)C(C(=O)OCC)=C1NC2(c3ccccc3Nc3ccc(C)cc32)C(C(=O)OC)S1 (stereo not given) | > 100 µM | > 100 µM | > 100 µM | > 100 µM | > 100 µM | > 100 µM | > 100 µM | > 100 µM | > 100 µM | > 100 µM
3 | NC(=O)c1nnsc1NC=O | > 100 µM | > 100 µM | > 100 µM | – | > 100 µM | > 100 µM | > 100 µM | > 100 µM | > 100 µM | > 100 µM
4 | CC(C)OC(=O)[C@@H](O)[C@H](CO)C1=CC([Si](C)(C)c2ccccc2)=CON1 | > 100 µM | > 100 µM | > 100 µM | > 100 µM | > 100 µM | > 100 µM | – | > 100 µM | > 100 µM | > 100 µM
5 | CC1CCc2sc3[nH]c(=S)n(-c4ccccc4)c(=O)c3c2C1 (stereo not given) | > 100 µM | > 100 µM | > 100 µM | > 100 µM | > 100 µM | > 100 µM | – | > 100 µM | > 100 µM | > 100 µM
6 | CCN(CC)C(=O)N1CN(c2ccccc2)C2(CCN(CCCSc3ccc(F)cc3)CC2)C1=O | 37.1 µM | 63 µM | 42.5 µM | 31.4 µM | 40.7 µM | 25.3 µM | > 100 µM | 10.7 µM | 26.8 µM | –
7 | CCN(CC)CCCC(C)NC(=O)c1ccc2c(c1)C(=O)c1ccccc1C2=O (stereo not given) | 29.8 µM | > 93.6 µM | – | – | – | 35.7 µM | 61.2 µM | 39.6 µM | 50.4 µM | 69.9 µM
8 | CC(NC(=O)C(N)CC(=O)O)NC(=O)N(C)C(C)(C)C (stereo not given) | > 100 µM | > 100 µM | > 100 µM | > 100 µM | > 100 µM | > 100 µM | > 100 µM | > 100 µM | > 100 µM | > 100 µM
9 | C=C(C(=O)OC)c1cc2ccccc2n1S(=O)(=O)c1ccccc1 | 5.79 µM | 26 µM | 7.28 µM | 5.12 µM | 8.51 µM | 5.99 µM | 4.18 µM | 8.21 µM | 5.12 µM | 11.1 µM
10 | Cc1ccc(S(=O)(=O)NC(=O)NC(Cc2ccc(O)c(O)c2)C(=O)O)cc1 (stereo not given) | > 100 µM | – | > 100 µM | > 100 µM | > 100 µM | > 100 µM | 63 µM | > 100 µM | > 100 µM | > 100 µM
11 | COC(=O)[C@H](Cc1ccccc1)NP(=O)(O)OCC1C=CC(n2cc(C)c(=O)[nH]c2=O)O1 (stereo not given in full) | – | > 100 µM | > 100 µM | > 100 µM | > 100 µM | > 100 µM | > 100 µM | > 100 µM | > 100 µM | > 100 µM
